Patent US9907859B2 (priority 2010, dated 2018)
In brackets after ≈: the same amount, converted by molar mass. Like-named read-outs stand apart in the source and are kept apart here.

Experiments:
variola viruses = conditions: in vitro, read-out: 50% effective concentration [EC50], inhibition of virus replication; cited from earlier work
VV = conditions: mouse, in vivo; cited from earlier work
CV = conditions: in vivo; cited from earlier work
physchem [1] = conditions: 37 °C, aqueous with cosolvent or surfactant or cyclodextrin, range of ST-246 solubilized by cyclodextrin
[2] = rabbit, in vivo
[3] = both, cynomolgus monkey, in vivo, po
physchem [4] = conditions: thermodynamic from solid
in vivo [5] = conditions: New Zealand White, rabbit, iv; for clearance: CL
physchem [6] = conditions: aqueous with cosolvent or surfactant or cyclodextrin
vaccinia virus (VV) = conditions: in vitro, read-out: 50% effective concentration [EC50], inhibition of virus replication; cited from earlier work
cowpox virus (CV) = conditions: in vitro, read-out: 50% effective concentration [EC50], inhibition of virus replication; cited from earlier work
in vivo [7] = conditions: both, cynomolgus monkey, po; for AUC(0-inf): AUCINF—obs
in vivo [8] = conditions: New Zealand White, rabbit, po, 100 mg/kg

## O=C(NN1C(=O)C2C3C=CC(C4CC34)C2C1=O)c1ccc(C(F)(F)F)cc1 (centres unmarked) [ST-246, 4-trifluoromethyl-N-(3,3a,4,4a,5,5a,6,6a-octahydro-1,3-dioxo-4,6-ethenocycloprop[f]isoindol-2(1H)-yl)-benzamide]
Variola viruses
  EC50: ≤ 70 nM
VV
  tail lesions: significantly reduced
CV
  preventing or reducing mortality: highly effective in preventing or reducing mortality
  toxicity in animal model: nontoxic
Physchem [1]
  solubility: 1500 to 11000 µg/mL (≈ 3.99 to 29.2 mM)
[2]; both, New Zealand White, iv, 60 mg/kg
  time to full recovery: 30 to 60 min
[2]
  tolerability: well-tolerated
[2]; 3 mg/kg
  tolerability: well-tolerated
[2]; iv, 1 mg/kg
  tolerability: well tolerated
[2]; iv, 60 mg/kg
  clinical signs: lethargy, labored breathing and narcosis
[3]
  increase of exposure (AUCinf-obs): 84 fold
  increase of maximum plasma concentration (Cmax): 37 fold
[3]; 10 mg/kg
  HL_Lambda_z: 7.0 ± 0.9 h
[3]; 20 mg/kg
  HL_Lambda_z: 7.2 ± 2.3 h
Physchem [4]; oil or lipid, absolute solubility of ST-246 in oils
  solubility: < 5000 µg/mL
Physchem [4]; pH 6.8, aqueous buffer, ST-246 Solubility
  solubility: < 100 µg/mL
Physchem [4]; simulated gastric fluid, ST-246 Solubility
  solubility: < 100 µg/mL
Physchem [4]; water, ST-246 Solubility
  solubility: < 100 µg/mL
In vivo [5]; 1 mg/kg, AUC0-24 hr
  AUC(0-t): 1430 ± 400 ng·h/mL
In vivo [5]; 1 mg/kg
  clearance: 27.7 mL/min/kg
In vivo [5]; 1 mg/kg, Cmax
  Cmax: 1670 ± 2270 ng/mL
In vivo [5]; 1 mg/kg, T1/2
  half-life: 0.9 ± 0.2 h
In vivo [5]; both, 3 mg/kg, AUC0-24
  AUC(0-t): 2380 ng·h/mL
In vivo [5]; both, 3 mg/kg, AUC0-24 hr
  AUC(0-t): 2380 ± 930 ng·h/mL
In vivo [5]; both, 3 mg/kg
  clearance: 22.3 mL/min/kg
In vivo [5]; both, 3 mg/kg, Cmax
  Cmax: 3030 ± 370 ng/mL
In vivo [5]; both, 3 mg/kg, mean Cmax
  Cmax: 5790 ng/mL
In vivo [5]; both, 30 mg/kg, AUC0-24 hr
  AUC(0-t): 13300 ± 700 ng·h/mL
In vivo [5]; both, 30 mg/kg
  clearance: 37.1 mL/min/kg
In vivo [5]; both, 30 mg/kg, Cmax
  Cmax: 38500 ± 3700 ng/mL
In vivo [5]; both, 30 mg/kg, T1/2
  half-life: 12.2 ± 5.8 h
In vivo [5]; both, 60 mg/kg, AUC0-24 hr
  AUC(0-t): 61800 ± 8700 ng·h/mL
In vivo [5]; both, 60 mg/kg
  clearance: 16.4 mL/min/kg
In vivo [5]; both, 60 mg/kg, Cmax
  Cmax: 94100 ± 11100 ng/mL
In vivo [5]; both, 60 mg/kg, T1/2
  half-life: 5.2 ± 0.8 h
In vivo [5]; both, 60 mg/kg, mean Cmax
  Cmax: 94100 ng/mL
In vivo [5]; both, elimination half-lives
  half-life: 1 to 12.2 h
In vivo [5]; female, 1 mg/kg, AUC0-24
  AUC(0-t): 1150 ng·h/mL
In vivo [5]; female, 1 mg/kg, Cmax
  Cmax: 679 ng/mL
In vivo [5]; female, 1 mg/kg, T1/2
  half-life: 0.69 h
In vivo [5]; female, 3 mg/kg, AUC0-24
  AUC(0-t): 3210 ng·h/mL
In vivo [5]; female, 3 mg/kg, Cmax
  Cmax: 3340 ng/mL
In vivo [5]; female, 30 mg/kg, AUC0-24
  AUC(0-t): 14900 ng·h/mL
In vivo [5]; female, 30 mg/kg, Cmax
  Cmax: 37000 ng/mL
In vivo [5]; female, 30 mg/kg, T1/2
  half-life: 16.3 h
In vivo [5]; female, 60 mg/kg, AUC0-24
  AUC(0-t): 60100 ng·h/mL
In vivo [5]; female, 60 mg/kg, Cmax
  Cmax: 88200 ng/mL
In vivo [5]; female, 60 mg/kg, T1/2
  half-life: 4.6 h
In vivo [5]; male, 1 mg/kg, AUC0-24
  AUC(0-t): 1710 ng·h/mL
In vivo [5]; male, 1 mg/kg, Cmax
  Cmax: 769 ng/mL
In vivo [5]; male, 1 mg/kg, T1/2
  half-life: 1.1 h
In vivo [5]; male, 3 mg/kg, AUC0-24
  AUC(0-t): 1870 ng·h/mL
In vivo [5]; male, 3 mg/kg, T1/2
  half-life: 3.2 h
In vivo [5]; male, 30 mg/kg, AUC0-24
  AUC(0-t): 16200 ng·h/mL
In vivo [5]; male, 30 mg/kg, Cmax
  Cmax: 40000 ng/mL
In vivo [5]; male, 30 mg/kg, T1/2
  half-life: 8.1 h
In vivo [5]; male, 60 mg/kg, AUC0-24
  AUC(0-t): 72300 ng·h/mL
In vivo [5]; male, 60 mg/kg, Cmax
  Cmax: 99800 ng/mL
In vivo [5]; male, 60 mg/kg, T1/2
  half-life: 5.7 h
Physchem [6]; 4 °C, Solubility of ST-246, 4 ° C.
  solubility: 6290 µg/mL (≈ 16.7 mM)
Physchem [6]; 25 °C, Solubility of ST-246, 25 ° C.
  solubility: 7570 µg/mL (≈ 20.1 mM)
Physchem [6]; 40 °C, Solubility of ST-246, 40 ° C.
  solubility: 11200 µg/mL (≈ 29.7 mM)
Physchem [6]; 60 °C, Solubility of ST-246, 60 ° C.
  solubility: 16200 µg/mL (≈ 43.2 mM)
Vaccinia virus (VV)
  EC50: ≤ 70 nM
Cowpox virus (CV)
  EC50: ≤ 70 nM
In vivo [7]; 0.3 mg/kg
  CL/F: 15.3 mL/min/kg
  Tmax: 2.5 h
  half-life: 4 ± 1.3 h
  AUC(0-inf): 380 ± 149 ng·h/mL
  Cmax: 53.8 ± 27.5 ng/mL
In vivo [7]; 3 mg/kg
  AUC(0-t): 3860 ± 862 ng·h/mL
  CL/F: 11.2 mL/min/kg
  Tmax: 3.3 h
  half-life: 9.9 ± 6 h
  AUC(0-inf): 4530 ± 490 ng·h/mL
  Cmax: 496 ± 145 ng/mL
In vivo [7]; 10 mg/kg
  AUC(0-t): 10300 ± 3060 ng·h/mL
  CL/F: 15.3 mL/min/kg
  Tmax: 3.8 h
  half-life: 7 ± 0.9 h
  AUC(0-inf): 11800 ± 3670 ng·h/mL
  Cmax: 1080 ± 279 ng/mL
In vivo [7]; 20 mg/kg
  AUC(0-t): 13400 ± 8020 ng·h/mL
  CL/F: 20.1 mL/min/kg
  Tmax: 3.2 h
  half-life: 7.2 ± 2.3 h
  AUC(0-inf): 15500 ± 9150 ng·h/mL
  Cmax: 1480 ± 864 ng/mL
In vivo [7]; 30 mg/kg
  AUC(0-t): 20500 ± 8050 ng·h/mL
  CL/F: 16.5 mL/min/kg
  Tmax: 3.6 h
  half-life: 17.7 ± 13.8 h
  AUC(0-inf): 31900 ± 7360 ng·h/mL
  Cmax: 1990 ± 873 ng/mL
In vivo [8]; both
  AUC(0-t): 19800 ng·h/mL
  CL/F: 120 mL/min/kg
  Cmax: 2860 ng/mL
  half-life: 3.7 h
In vivo [8]; female
  AUC(0-t): 8180 ng·h/mL
  Cmax: 1230 ng/mL
  half-life: 1.3 h
In vivo [8]; male
  AUC(0-t): 26400 ng·h/mL
  Cmax: 4480 ng/mL
  half-life: 6 h
